“And” between values parts separate entries of the source, which are not always exact repeats. Equal values may be shown once. Inconclusive results and toxic doses are left out.

The test relates to P388 leukemia ip, CD2F1 mice, survival T/C. In words: NCI In Vivo Anticancer Drug Screen. Data for tumor model P388 Leukemia (intraperitoneal) in CD2F1 (CDF1) mice. The conditions noted are these: endpoint: median survival time, higher = longer survival. In outline:
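Mice carrying the transplanted tumor received test compound or vehicle. Survival was recorded in each group, and the value is the treated-group measurement divided by that of the vehicle-treated control group.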

The mark [1] stands for this setting: dose: 60.0 mg/kg/injection, schedule: Q01DX005 (ip), vehicle: saline with Tween-80.
Setting [2] is: dose: 240.0 mg/kg/injection, schedule: Q01DX005 (ip), vehicle: saline with Tween-80.
The mark [3] stands for this setting: dose: 50.0 mg/kg/injection, schedule: Q01DX009 (ip), vehicle: saline.
Where [4] appears, read: dose: 100.0 mg/kg/injection, schedule: Q01DX009 (ip), vehicle: saline.

Regarding `O=C1NC(=O)c2c(Br)c(Br)c(Br)c(Br)c21`, the T/C (dose: 50.0 mg/kg/injection, schedule: Q01DX009 (ip), vehicle: Klucel (hydroxypropylcellulose) (HPC)) was 109 % of control; the T/C (dose: 100.0 mg/kg/injection, schedule: Q01DX009 (ip), vehicle: Klucel (hydroxypropylcellulose) (HPC)) is 109 % of control; the T/C (dose: 200.0 mg/kg/injection, schedule: Q01DX009 (ip), vehicle: Klucel (hydroxypropylcellulose) (HPC)) is 105 % of control; the T/C (dose: 400.0 mg/kg/injection, schedule: Q01DX009 (ip), vehicle: Klucel (hydroxypropylcellulose) (HPC)) was 96 % of control.

For the molecule `C/C=C(\CC[Se]c1ccccc1)C(=O)OC`, the T/C (dose: 50.0 mg/kg/injection, schedule: Q01DX009 (ip), vehicle: distilled water + Tween-80 + alcohol) is 108 % of control; the T/C (dose: 100.0 mg/kg/injection, schedule: Q01DX009 (ip), vehicle: distilled water + Tween-80 + alcohol) was 98 % of control; the T/C (dose: 200.0 mg/kg/injection, schedule: Q01DX009 (ip), vehicle: distilled water + Tween-80 + alcohol) is 106 % of control.

`CC(N)C(=O)Nc1ccc(C(=O)O)c(O)c1` (centres undefined): the T/C is 100 % of control under setting [1]; 102 % of control (dose: 120.0 mg/kg/injection, schedule: Q01DX005 (ip), vehicle: saline with Tween-80); 93 % of control under setting [2].

On to `O=c1[nH]c2ncccc2c(O)c1-c1ccccc1`, for which the T/C by setting is: under setting [3], 107 % of control; under setting [4], 96 % of control; (dose: 200.0 mg/kg/injection, schedule: Q01DX009 (ip), vehicle: saline) 96 % of control.

On to `CCCCCCCCC[N+](C)([O-])CCCCCC[N+](C)([O-])CCCCCCCCC` (centres undefined), for which the T/C (dose: 12.5 mg/kg/injection, schedule: Q04DX003 (ip), vehicle: saline) is 103 % of control; the T/C (dose: 25.0 mg/kg/injection, schedule: Q04DX003 (ip), vehicle: saline) was 96 % of control; the T/C (dose: 50.0 mg/kg/injection, schedule: Q04DX003 (ip), vehicle: saline) was 93 % of control.

Consider `Cc1ccc(S(=O)(=O)OCCN(CCOS(=O)(=O)c2ccc(C)cc2)c2ccc(F)cc2)cc1`, for which the T/C runs as follows: (dose: 0.63 mg/kg/injection, schedule: Q01DX009 (ip), vehicle: other) 104 % of control; (dose: 1.25 mg/kg/injection, schedule: Q01DX009 (ip), vehicle: other) 118 % of control; (dose: 5.0 mg/kg/injection, schedule: Q01DX009 (ip), vehicle: other) 150 % of control.

Take `CCCOc1ccc(C(C)c2cc3c(cc2OCC)OCO3)cc1` (centres undefined): the T/C is 104 % of control (dose: 50.0 mg/kg/injection, schedule: Q01DX005 (ip), vehicle: Klucel + Tween-80); 98 % of control (dose: 100.0 mg/kg/injection, schedule: Q01DX005 (ip), vehicle: Klucel + Tween-80); 97 % of control (dose: 200.0 mg/kg/injection, schedule: Q01DX005 (ip), vehicle: Klucel + Tween-80).

`CCN(CC)CCNc1ccc(C)c2sc3ccccc3c(=O)c12`: the T/C by setting is: (dose: 6.25 mg/kg/injection, schedule: Q01DX005 (ip), vehicle: distilled water + Tween-80) 100 % of control and 106 % of control; (dose: 6.25 mg/kg/injection, schedule: Q01DX009 (ip), vehicle: water) 100 % of control; (dose: 7.8 mg/kg/injection, schedule: Q01DX005 (ip), vehicle: saline) 109 % of control; (dose: 12.5 mg/kg/injection, schedule: Q01DX005 (ip), vehicle: distilled water + Tween-80) 101 % of control and 104 % of control and 107 % of control; (dose: 12.5 mg/kg/injection, schedule: Q01DX009 (ip), vehicle: water) 99 % of control; (dose: 13.0 mg/kg/injection, schedule: Q01DX005 (ip), vehicle: water) 120 % of control. Further, the T/C reads like this: (dose: 15.6 mg/kg/injection, schedule: Q01DX005 (ip), vehicle: saline) 113 % of control; (dose: 16.2 mg/kg/injection, schedule: Q01DX005 (ip), vehicle: saline) 107 % of control and 108 % of control; (dose: 16.2 mg/kg/injection, schedule: Q01DX005 (ip), vehicle: water) 107 % of control; (dose: 19.4 mg/kg/injection, schedule: Q01DX005 (ip), vehicle: saline) 102 % of control; (dose: 19.4 mg/kg/injection, schedule: Q01DX005 (ip), vehicle: water) 109 % of control; (dose: 19.44 mg/kg/injection, schedule: Q01DX005 (ip), vehicle: saline) 114 % of control. Moreover, the T/C runs as follows: (dose: 21.6 mg/kg/injection, schedule: Q01DX005 (ip), vehicle: water) 117 % of control; (dose: 25.0 mg/kg/injection, schedule: Q01DX005 (ip), vehicle: saline with Tween-80) 114 % of control; (dose: 25.0 mg/kg/injection, schedule: Q01DX009 (ip), vehicle: water) 100 % of control; (dose: 27.0 mg/kg/injection, schedule: Q01DX005 (ip), vehicle: saline) 114 % of control; (dose: 27.0 mg/kg/injection, schedule: Q01DX005 (ip), vehicle: water) 118 % of control; (dose: 32.4 mg/kg/injection, schedule: Q01DX005 (ip), vehicle: saline) 111 % of control. Moreover, the T/C is 119 % of control (dose: 32.4 mg/kg/injection, schedule: Q01DX005 (ip), vehicle: water); 119 % of control (dose: 38.9 mg/kg/injection, schedule: Q04DX003 (ip), vehicle: saline); 124 % of control (dose: 45.0 mg/kg/injection, schedule: Q01DX005 (ip), vehicle: saline); 115 % of control (dose: 50.0 mg/kg/injection, schedule: Q01DX009 (ip), vehicle: water); 152 % of control (dose: 54.0 mg/kg/injection, schedule: Q01DX005 (ip), vehicle: saline); 123 % of control (dose: 54.0 mg/kg/injection, schedule: Q01DX005 (ip), vehicle: water). For the same molecule, the T/C by setting is: (dose: 62.5 mg/kg/injection, schedule: Q01DX005 (ip), vehicle: saline) 181 % of control; (dose: 75.0 mg/kg/injection, schedule: Q01DX005 (ip), vehicle: saline) 156 % of control; (dose: 75.0 mg/kg/injection, schedule: Q01DX005 (ip), vehicle: water) 151 % of control; (dose: 80.0 mg/kg/injection, schedule: Q01DX005 (ip), vehicle: water) 156 % of control; (dose: 90.0 mg/kg/injection, schedule: Q01DX005 (ip), vehicle: saline) 154 % of control; (dose: 125.0 mg/kg/injection, schedule: Q01DX005 (ip), vehicle: saline) 166 % of control and 168 % of control. Further, for the setting “dose: 180.0 mg/kg/injection, schedule: Q04DX003 (ip), vehicle: saline”, the T/C was 168 % of control.

On to `O=C(Oc1cc(O)cc2[o+]c(-c3ccc(O)cc3)c(O)cc12)c1ccccc1`, for which the T/C is, setting by setting: (dose: 50.0 mg/kg/injection, schedule: Q01DX005 (ip), vehicle: Klucel (hydroxypropylcellulose) (HPC)) 96 % of control; (dose: 100.0 mg/kg/injection, schedule: Q01DX005 (ip), vehicle: Klucel (hydroxypropylcellulose) (HPC)) 109 % of control; (dose: 200.0 mg/kg/injection, schedule: Q01DX005 (ip), vehicle: Klucel (hydroxypropylcellulose) (HPC)) 96 % of control.

For `Nc1nc2[nH]c(=S)[nH]c2c(=O)[nH]1`, the T/C runs as follows: (dose: 50.0 mg/kg/injection, schedule: Q01DX005 (ip), vehicle: saline with Tween-80) 92 % of control; (dose: 100.0 mg/kg/injection, schedule: Q01DX005 (ip), vehicle: saline with Tween-80) 92 % of control; (dose: 200.0 mg/kg/injection, schedule: Q01DX005 (ip), vehicle: saline with Tween-80) 95 % of control.

Take `COC(C(=O)C(O)C(C)O)C1CC2C=C3C=C(OC4CC(OC5CC(O)C(OC)C(C)O5)C(OC(C)=O)C(C)O4)C(C)C(=O)C3=C(O)C2=C(O)C1OC1CC(OC2CC(OC3CC(C)(O)C(OC(=O)C(C)C)C(C)O3)C(O)C(C)O2)C(O)C(C)O1` (centres undefined): the T/C is, setting by setting: (dose: 1.0 micrograms/kg/injection, schedule: Q01DX010 (ip), vehicle: saline) 150 % of control; (dose: 4.0 micrograms/kg/injection, schedule: Q01DX010 (ip), vehicle: saline) 165 % of control; (dose: 8.0 micrograms/kg/injection, schedule: Q01DX010 (ip), vehicle: saline) 175 % of control; (dose: 16.0 micrograms/kg/injection, schedule: Q01DX010 (ip), vehicle: saline) 155 % of control.

Turning to `CCCCOc1ccc(/C=N/NC(=O)CNC(=O)Nc2cccc([N+](=O)[O-])c2)cc1`, the T/C runs as follows: (dose: 15.0 mg/kg/injection, schedule: Q01DX005 (ip), vehicle: saline with Tween-80) 98 % of control; (dose: 30.0 mg/kg/injection, schedule: Q01DX005 (ip), vehicle: saline with Tween-80) 89 % of control; under setting [1], 86 % of control and 87 % of control; under setting [2], 91 % of control.

As for `CC(C)NCC(O)c1cc(Br)c(Br)s1` (centres undefined), the T/C reads like this: under setting [3], 98 % of control; under setting [4], 102 % of control.
